The text below walks through data of ChEMBL document CHEMBL3580593, “Parthenolide prodrug LC-1 slows growth of intracranial glioma” (Bioorg Med Chem Lett, 2015).

Molecules are shown by their SMILES. Calls of active or inactive are those of the source. The rule behind the calls is not given here.

Data set [1] is described as follows: Cytotoxicity against […] GL261-GFP-Luc cells assessed as cell viability after 48 hrs by Alamar Blue assay. In kind it is functional, cell-based. As to conditions: Mus musculus, GL261, 48 h.
The test system of data set [2] is U-87 MG. In words: Cytotoxicity against human U87MG cells assessed as cell viability after 48 hrs by Alamar Blue assay. It counts as functional, cell-based, U-87MG ATCC.
Data set [3] is described as follows: Cytotoxicity against human GBM6 cells assessed as cell viability after 48 hrs by Alamar Blue assay. In kind it is functional, cell-based. The settings on record: GBM6, 48 h.
The nature of data set [4]: Ratio of drug level in brain to plasma in Wistar rat at 100 mg/kg, po after 3 hrs by UPLC-MS/MS analysis. It counts as ADME, organism-based. As to conditions: read-out: BPR.
Data set [5] is described as follows: Drug uptake in CD1 mouse perfused brain at 100 mg/kg, po after 4 hrs by LC-MS/MS analysis. It counts as ADME, organism-based. As to conditions: read-out: Drug uptake.
Data set [6] relates to Nucleic Acid. Kind of data set: Ratio of drug level in brain to plasma in CD1 mouse assessed as elimination product parthenolide at 100 mg/kg, po after 4 hrs by LC-MS/MS analysis. It counts as ADME, organism-based.
Data set [7] in a line: Drug uptake in CD1 mouse plasma at 100 mg/kg, po after 4 hrs by LC-MS/MS analysis. It counts as ADME, organism-based.
For data set [8], the system named is Mus musculus. Kind of data set: Toxicity in C57BL/6 mouse assessed as RBC count at 100 mg/kg, po formulated in HP-beta CD. The settings on record: in vivo. In kind it is organism-based.
Data set [9] relates to Plasma. Kind of data set: Drug uptake in CD1 mouse plasma assessed as elimination product parthenolide at 100 mg/kg, po after 4 hrs by LC-MS/MS analysis. The settings on record: in vivo. It counts as ADME, organism-based.
Data set [10] concerns Mus musculus. Kind of data set: Toxicity in C57BL/6 mouse assessed as WBC count at 100 mg/kg, po formulated in HP-beta CD. The settings on record: in vivo. In kind it is organism-based.
The subject of data set [11] is Mus musculus. Kind of data set: Toxicity in C57BL/6 mouse assessed as hemoglobin level at 100 mg/kg, po formulated in HP-beta CD. In kind it is organism-based. As to conditions: in vivo.
The subject of data set [12] is Brain. Kind of data set: Drug uptake in CD1 mouse perfused brain assessed as elimination product parthenolide at 100 mg/kg, po after 1 hr by LC-MS/MS analysis. As to conditions: in vivo. It counts as ADME, organism-based.
The test system of data set [13] is Brain. In words: Drug uptake in CD1 mouse perfused brain assessed as elimination product parthenolide at 100 mg/kg, po after 4 hrs by LC-MS/MS analysis. As to conditions: in vivo. In kind it is ADME, organism-based.
The test system of data set [14] is GL261. Kind of data set: Antitumor activity in mouse GL261-GFP-Luc cells allografted in C57BL/6J mouse assessed as increase in mouse survival time at 100 mg/kg, po relative to control. It counts as functional, organism-based.
Data set [15] is described as follows: Ratio of drug level in brain to plasma in CD1 mouse at 100 mg/kg, po after 1 hr by LC-MS/MS analysis. In kind it is ADME, organism-based. As to conditions: read-out: BPR.
The subject of data set [16] is GL261. In words: Antitumor activity in mouse GL261-GFP-Luc cells allografted in C57BL/6J mouse assessed as delay in tumor growth at 100 mg/kg, po relative to control. In kind it is functional, organism-based.
For data set [17], the system named is Plasma. In words: Drug uptake in CD1 mouse plasma assessed as elimination product parthenolide at 100 mg/kg, po after 1 hr by LC-MS/MS analysis. It counts as ADME, organism-based. As to conditions: in vivo.
The nature of data set [18]: Ratio of drug level in brain to plasma in Wistar rat at 100 mg/kg, po after 30 mins by UPLC-MS/MS analysis. It counts as ADME, organism-based. The settings on record: read-out: BPR.
A short description of data set [19]: Ratio of drug level in brain to plasma in CD1 mouse at 100 mg/kg, po after 4 hrs by LC-MS/MS analysis. As to conditions: read-out: BPR. It counts as ADME, organism-based.
Data set [20] in a line: Drug uptake in CD1 mouse plasma at 100 mg/kg, po after 1 hr by LC-MS/MS analysis. It counts as ADME, organism-based.
A short description of data set [21]: Half life in mouse serum. It counts as ADME, cell-free.
Data set [22] can be described thus: Drug uptake in CD1 mouse perfused brain at 100 mg/kg, po after 1 hr by LC-MS/MS analysis. It counts as ADME, organism-based. As to conditions: read-out: Drug uptake.
Data set [23] has as its system Mus musculus. In words: Toxicity in C57BL/6 mouse assessed as platelet count at 100 mg/kg, po formulated in HP-beta CD. It counts as organism-based. The settings on record: in vivo.

Regarding `C=C1C(=O)O[C@@H]2C3O[C@]3(C)CC/C=C(\C)CC[C@@H]12` (stereo partly specified), the IC50 in data set [1] turned out to be 7.6 µM; in [2], 8.8 µM; in data set [3] it was 3.4 µM.

Turning to `C/C1=C\CC[C@@]2(C)O[C@H]2[C@H]2OC(=O)[C@@H](CN(C)C)[C@@H]2CC1`, the Kp at 3 h in data set [4] turned out to be 1.91. Further, the concentration at 4 h in data set [5] came out at 342 ng/g; in data set [7], 115 ng/mL. Moreover, the IC50 stood at 6.9 µM in [1], 8.8 µM in data set [2] and 3.5 µM in [3]. Besides, in [6], the BPR is 0.5. The Activity result in data set [8], in [10], in data set [11] and in data set [23] was “Non-toxic” throughout. The results for the Cp in [9] and in data set [17] were 211 ng/mL and 2142 ng/mL, respectively. Also, the Drug uptake in [12] was 2402 ng/g; in [13], 113 ng/g. Further, the outcome in data set [14] and in [16] was Active. Also, the Kp at 1 h in data set [15] came to 2.1. Also, in data set [18], the Kp at 0.5 h came to 1.84. The Kp at 4 h in data set [19] came to 3. The concentration at 1 h worked out at 2960 ng/mL in [20] and 6250 ng/g in [22]. In [21], this compound showed a half-life of 37.8 min.
